Results reported in patent publication US20180021319A1, “COMPOSITIONS AND METHODS FOR TREATING GASTROINTESTINAL INFECTIONS” (The Regents of the University of California, priority 2015, published 2018).

Test system: Helicobacter pylori
Experiment: Dual therapy of AGN 201904 with amoxicillin to treat H. pylori infection
Type: in vivo
Conditions: AGN 201904 with amoxicillin alone (dual therapy), compared to standard H. pylori infection therapies

For `COc1ccc2c(c1)nc([S+]([O-])Cc1ncc(C)c(OC)c1C)n2S(=O)(=O)c1ccc(OCC(=O)O)cc1` (centres unmarked) [AGN 201904], the “H. pylori eradication rate” value was “higher eradication rate” and the H. pylori resistance was “no H. pylori resistance”.
